{
  "source": "patent US9745280B2",
  "about": "“Compound or pharmaceutically acceptable salt thereof, and pharmaceutical composition containing same as active ingredient” (SNU R&DB FOUNDATION, priority 2012, dated 2017)",
  "key": {"[1]": {"tested_on": "lung cancer cells with or without anticancer drug resistance", "assay": "Anchorage-independent (soft agar) colony formation assay", "type": "cell-based", "conditions": "2 weeks", "description": "(§1) H1299, H460, H292, and BEAS-2B cells were purchased from the ATCC. The other NSCLC cells were kindly provided by Dr. John V. Heymach (MD Anderson Cancer Center, Houston, Tex.). HUVECs were purchased from Invitrogen. Human bronchial epithelial (HBE) cells were kindly provided by Dr. John Minna (The University of Texas Southwestern Medical Center, Dallas, Tex.). Human retinal pigment epithelial (RPE) cells were kindly provided by Dr. Jeong Hun Kim (College of Medicine, Seoul National University, Seoul, Republic of Korea). HT-22 cells were provided by Dr. Dong Gyu Jo (College of Pharmacy, Sungkyunkwan University, Suwon, Republic of Korea). Cell lines were authenticated and validated at the Korean Cell Line Bank using AmplFLSTR identifier PCR Amplification Kit (Applied Biosystems; cat. No. 4322288) in 2013. Cells passed for fewer than 6 months after receipt or resuscitation of validated cells were used in this study.\nHT-22 and RPE cells were cultured in DMEM supplemented with 10% fetal bovine serum (FBS) and antibiotics. […]\nFor the anchorage-independent colony formation assay, the cells were mixed with sterile 1% agar solution (final concentration of 0.4%) and then poured onto 1% base agar in 24-well plates. […] After incubation, the colonies were stained with MTT solution and then photographed and counted."}, "HIF-1α": {"tested_on": "HIF-1α", "assay": "HIF-1α inhibitory activity, hypoxia-response element-luciferase in HRE-A549 cells", "type": "cell-based", "conditions": "HRE-A549 cells, hypoxia-chamber 24 h, luciferase activity", "procedure": "HRE-A549 cells stably transfected with hypoxia-response element-luciferase construct were incubated in Dulbecco's modified Eagle's medium. Following overnight serum deprivation, the cells were treated with or without Deguelin or example compounds. After 1 h incubation, the cells were incubated in hypoxia-chamber for 24 h at 37° C. Luciferase activity was measured by adding luciferase assay reagent (Promega, Madison, Wis.)."}, "[2]": {"tested_on": "H1299 NSCLC (non-small cell lung cancer) cells", "assay": "Cancer cell growth inhibition (MTS)", "type": "cell-based", "conditions": "Homo sapiens", "procedure": "To investigate the inhibitory effect of the compounds of Examples of the present invention on cancer cell growth, the following experiment was performed. Particularly, H1299 NSCLC (non-small cell lung cancer) cells were distributed in a 96-well plate at the density of 5×10^3 cells/well, followed by culture in a 37° C., 5% CO2 incubator for 24 hours. The compound of each example was dissolved in DMSO (10 nM, 100 nM, 1 μM, 10 μM), which was treated to each well. 48 hours later, cell growth was measured by using MTS reagent (3-(4,5-dimethylthiazole-2-yl)-5-(3-carboxymethoxyphenyl)-2-(4-sulfophenyl)-2H-tetrazolium). The experiment was performed in triplicate and the standard error of the analysis result was corrected."}, "HUVECs": {"tested_on": "HUVECs", "assay": "HUVEC tube formation with conditioned medium from treated H1299 cells", "type": "cell-based", "conditions": "CM from H1299 cells treated under normoxic or hypoxic conditions", "procedure": "H1299 cells were treated with example 28 compound (“SH” in FIG. 13) or deguelin for 1 d and then further incubated under normoxic or hypoxic conditions for 4 h. After incubation, the drug-containing medium was discarded and fresh serum-free medium was added to cell and further incubated for 24 h. After incubation, the conditioned medium (CM) was collected.\nBriefly, the HUVECs were diluted in complete medium and seeded onto CellBIND surface 96-well plates (Corning). The cells were treated with the CM. The morphological changes of the HUVECs were photographed and scored."}, "[3]": {"tested_on": "hippocampal cells (HT-22)", "type": "cell-based", "description": "(§2) We examined toxicity of example 28 compound at the cellular levels by testing the effects of example 28 compound on the viability of several normal cells, including human normal lung epithelial cells (HBE and BEAS-2B; FIG. 14), hippocampal cells (HT-22; FIG. 15), retinal pigment epithelial cells (FIG. 16), and vascular endothelial cells (HUVEC; FIG. 17)."}, "[4]": {"tested_on": "human normal lung epithelial cells (HBE and BEAS-2B)", "type": "cell-based", "description": "as §2"}, "[5]": {"tested_on": "vascular endothelial cells (HUVEC)", "type": "cell-based", "description": "as §2"}, "[6]": {"tested_on": "lung cancer cells with or without anticancer drug resistance", "assay": "Anchorage-dependent colony formation assay", "type": "cell-based", "conditions": "increasing concentrations, 2 weeks", "description": "as §1\nHT-22 and RPE cells were cultured in DMEM supplemented with 10% fetal bovine serum (FBS) and antibiotics. Other cancer cells were cultured in RPMI 1640 medium supplemented with 10% FBS and antibiotics. […]\nFor the anchorage-dependent colony formation assay, cells were seeded onto 6-well plates at a density of 300 cells/well and then treated with increasing concentrations of example 28 compound (“SH” in FIG. 11) for 2 weeks. […] The colonies were photographed and counted."}, "[7]": {"assay": "Body weight of treated rats", "type": "in vivo"}, "[8]": {"tested_on": "retinal pigment epithelial cells", "type": "cell-based, human", "description": "as §2"}, "[9]": {"tested_on": "human umbilical vein endothelial cells (HUVECs)", "assay": "Vascular endothelial cell proliferation, [3H]-thymidine incorporation, conditioned media of hypoxic HCT116", "type": "cell-based", "conditions": "conditioned media of HCT116 treated at 1˜100 nM under hypoxia; HUVECs 18 hours", "procedure": "(§3) First, HCT116, the human colorectal cancer cell line, was cultured in a hypoxic chamber (1% O2) as the in vitro hypoxic model. The cells were treated with deguelin, compound 69 (Example 33) and compound 54 (Example 28) at the concentrations of 1˜100 nM, followed by culture for 8 hours. Next, the culture fluid was collected and proceeded to centrifugation at 4° C. for 10 minutes (6,000×g). Cell culture fluid was obtained from the supernatant (conditioned media (CM)). The obtained cell culture fluid was treated to human umbilical vein endothelial cells (HUVECs) which were cultured separately. Then changes of angiogenesis were investigated by the following experiments.\nThe cell culture fluid prepared in the above preparation stage was treated to umbilical vein endothelial cells (HUVECs) for 18 hours. Cell proliferation was confirmed by [^3H]-thymidine incorporation assay."}, "[10]": {"tested_on": "human umbilical vein endothelial cells (HUVECs)", "assay": "Vascular endothelial cell tube formation, conditioned media of hypoxic HCT116", "type": "cell-based", "conditions": "conditioned media of treated HCT116; 30 hours", "procedure": "as §3\nUmbilical vein endothelial cells (HUVECs) were treated with the cell culture fluid obtained in the above preparation stage. 30 hours later, tube formation was observed. As a result, tube formation was induced by the control deguelin and the compounds of the present invention."}, "[11]": {"tested_on": "human bronchial epithelial cells (HBEC-1 and BEAS-2B)", "assay": "Cytotoxicity to normal cells (MTT)", "type": "cell-based", "conditions": "3 days", "procedure": "To investigate the cytotoxicity of the control deguelin, the compound 69 (Example 33), and the compound 54 (Example 28) to the normal cells, it was examined how these compounds affect the proliferation of human bronchial epithelial cells (HBEC-1 and BEAS-2B).\nParticularly, HBEC-1 and BEAS-2B cells were seeded on a 96-well culture plate (5,000 cells/well), followed by culture for 24 hours. The plate was treated with 0.1% DMSO (comparative control (CT)), 1 μM of deguelin (control), or […] of the compound 69 (Example 33) and the compound 54 (Example 28) (experimental group), followed by further culture for 3 days. Cytotoxicity was evaluated by MTT assay."}, "[12]": {"tested_on": "human umbilical vein endothelial cells (HUVECs)", "assay": "Vascular endothelial cell migration, trans-well, conditioned media of hypoxic HCT116", "type": "cell-based", "conditions": "cell culture fluid treated at 100 nM; 4 hours", "procedure": "as §3\nThe cell culture fluid obtained in the above preparation stage was loaded in the lower chamber of trans-well plate (6.5 mm diameter filter) and umbilical vein endothelial cells (HUVECs) were plated carefully in the upper chamber, followed by culture at 37° C. for 4 hours. The cells migrated down the filter were confirmed by H&E staining."}, "[13]": {"conditions": "previous study; decreased tyrosine hydroxylase immunoreactivity; cited from earlier work"}},
  "note": "pIC50: −log10 of the molar value.",
  "data": [
    {"compound": "COc1ccc(CC(=O)c2ccc3c(c2OC)C=CC(C)(C)O3)cc1OC", "note": "[Example 28, 2-(3,4-Dimethoxyphenyl)-1-(5-methoxy-2,2-dimethyl-2H-chromen-6-yl)ethanone]", "values": [
      {"measurement": "anchorage-independent colony formation", "setting": "[1]", "result": "remarkably superior anticancer effect"},
      {"measurement": "pIC50", "setting": "HIF-1α", "result": 5.67},
      {"measurement": "pIC50", "setting": "[2]; NCI-H1299, 48 hours, MTS reagent", "result": 6.85},
      {"measurement": "tube formation of HUVECs", "setting": "HUVECs", "result": "formed significantly fewer tubes"},
      {"measurement": "cytotoxicity compared with deguelin", "setting": "[3]", "result": "significantly reduced cytotoxicity"},
      {"measurement": "cytotoxicity compared with deguelin", "setting": "[4]", "result": "significantly reduced cytotoxicity"},
      {"measurement": "cytotoxicity compared with deguelin", "setting": "[5]", "result": "significantly reduced cytotoxicity"},
      {"measurement": "anchorage-dependent colony formation", "setting": "[6]", "result": "remarkably superior anticancer effect"},
      {"measurement": "body weight of rats", "setting": "[7]; rat, in vivo", "result": "minimal influence on the body weight of rats"},
      {"measurement": "cytotoxicity compared with deguelin", "setting": "[8]", "result": "significantly reduced cytotoxicity"},
      {"measurement": "proliferation of vascular endothelial cells", "setting": "[9]", "result": "inhibited the proliferation of vascular endothelial cells dose-dependently"}
    ]},
    {"compound": "COc1ccc(CC(=O)c2ccc3c(c2OC)C=CC(C)(C)O3)cc1OC", "note": "[compound 54, 2-(3,4-Dimethoxyphenyl)-1-(5-methoxy-2,2-dimethyl-2H-chromen-6-yl)ethanone]", "values": [
      {"measurement": "inhibitory effect on tube formation", "setting": "[10]", "result": "greater than that of the control deguelin"},
      {"measurement": "cell survival rate", "setting": "[11]; human, 1 μM", "result": "approximately 80%"},
      {"measurement": "migration of vascular endothelial cells", "setting": "[12]", "result": "showed the inhibitory effect on the migration of vascular endothelial cells"},
      {"measurement": "pIC50", "setting": "[2]; NCI-H1299, value repeated in text", "result": 6.85}
    ]},
    {"compound": "COc1ccc([C@H](C)C(=O)c2ccc3c(c2OC)C=CC(C)(C)O3)cc1OC", "note": "[compound 69, (S)-2-(3,4-Dimethoxyphenyl)-1-(5-methoxy-2,2-dimethyl-2H-chromen-6-yl)propan-1-one]", "values": [
      {"measurement": "inhibitory effect on tube formation", "setting": "[10]", "result": "greater than that of the control deguelin"},
      {"measurement": "cell survival rate", "setting": "[11]; human, 1 μM", "result": "approximately 80%"},
      {"measurement": "migration of vascular endothelial cells", "setting": "[12]", "result": "showed the inhibitory effect on the migration of vascular endothelial cells"},
      {"measurement": "proliferation of vascular endothelial cells", "setting": "[9]", "result": "inhibited the proliferation of vascular endothelial cells dose-dependently"}
    ]},
    {"compound": "COc1cc2c(cc1OC)[C@@H]1C(=O)c3ccc4c(c3O[C@@H]1CO2)C=CC(C)(C)O4", "note": "[deguelin, Deguelin, reference compound]", "values": [
      {"measurement": "toxicity in the rat brain", "setting": "[13]", "result": "caused parkinsonism-like syndrome"},
      {"measurement": "cell survival rate", "setting": "[11]; HBEC-1 and BEAS-2B, 1 μM of deguelin, MTT", "result": "approximately 60%"},
      {"measurement": "body weight of rats", "setting": "[7]; compared with control", "result": "significantly reduced"}
    ]}
  ]
}
